Source: publication PMC3516848 (Journal of medicinal chemistry, 2011)

Target: T1, recombinant PfA-M1 (Plasmodium falciparum, UniProt O96935)
T1 sequence (O96935 1-1085): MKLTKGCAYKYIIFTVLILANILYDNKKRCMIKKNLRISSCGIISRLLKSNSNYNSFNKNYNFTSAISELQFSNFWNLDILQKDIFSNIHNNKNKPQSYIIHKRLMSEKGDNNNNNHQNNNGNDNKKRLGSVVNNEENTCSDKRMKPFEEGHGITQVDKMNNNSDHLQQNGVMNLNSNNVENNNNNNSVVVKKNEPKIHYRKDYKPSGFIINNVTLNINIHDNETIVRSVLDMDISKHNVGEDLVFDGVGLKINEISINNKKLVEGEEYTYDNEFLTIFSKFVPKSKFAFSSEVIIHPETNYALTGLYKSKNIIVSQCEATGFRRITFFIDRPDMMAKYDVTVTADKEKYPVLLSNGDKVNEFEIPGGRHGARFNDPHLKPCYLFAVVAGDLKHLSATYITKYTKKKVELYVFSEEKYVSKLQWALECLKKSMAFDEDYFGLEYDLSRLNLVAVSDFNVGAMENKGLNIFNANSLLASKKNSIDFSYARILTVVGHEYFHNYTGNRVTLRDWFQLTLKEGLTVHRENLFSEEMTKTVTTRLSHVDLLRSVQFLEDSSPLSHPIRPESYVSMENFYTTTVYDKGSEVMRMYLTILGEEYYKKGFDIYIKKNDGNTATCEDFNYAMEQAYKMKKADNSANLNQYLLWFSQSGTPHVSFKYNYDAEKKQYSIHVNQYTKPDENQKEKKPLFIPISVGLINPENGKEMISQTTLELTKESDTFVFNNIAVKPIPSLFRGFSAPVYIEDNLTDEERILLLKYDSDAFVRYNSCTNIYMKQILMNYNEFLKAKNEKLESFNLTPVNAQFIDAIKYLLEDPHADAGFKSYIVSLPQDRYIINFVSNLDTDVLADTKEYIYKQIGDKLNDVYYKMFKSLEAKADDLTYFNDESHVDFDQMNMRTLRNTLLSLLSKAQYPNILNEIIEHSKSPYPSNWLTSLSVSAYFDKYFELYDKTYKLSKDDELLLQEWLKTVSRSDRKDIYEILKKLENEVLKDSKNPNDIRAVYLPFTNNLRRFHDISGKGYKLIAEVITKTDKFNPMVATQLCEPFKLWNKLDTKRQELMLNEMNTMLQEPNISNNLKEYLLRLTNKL
Assay type: biochemical
Settings: read-out: Ki (nM) PfA-M1; P1' derivatives; assays at 8 inhibitor concentrations spanning 0.3 30 μM

Ki	SMILES
> 30000 nM	N[C@H](Cc1ccccc1)[C@H](O)C(=O)N[C@@H](Cc1ccc2ccccc2c1)C(=O)O [compound 5, PheNaphOH]
> 30000 nM	N[C@H](Cc1ccccc1)[C@H](O)C(=O)N[C@@H](Cc1ccc(-c2ccccc2)cc1)C(=O)O [compound 6, PheBipOH]
